In US4877893A, “Process for the preparation of 2-(O-alkyl)-2-thio-1,3,2-oxathiophospholanes” (priority 1987, dated 1989):

What was measured:
Assay in all cases: Fungicidal effect on infected agar nutrient media, colony diameter
Type in all cases: cell-based
Sclerotinia sclerotinia = settings: 3rd day after treatment, untreated control 41.7
Procedure: (§1) Agar nutrient media (Diameter 70 MM, thickness 10 mm) infected by Sclerotonia sclerotinia suspension are treated with 20 EC formulations prepared according to Example 27 and comprising 1, 10, 100 and 1000 ppm, respectively of the active ingredient of the Formula I. The fungicidal effect of the compositions is evaluated on the 3rd day after treatment by measuring the diameter of the Fungi colonies.

Penicillium cyclopium = settings: 7th day after treatment, untreated 26.5
Procedure: as §1
The series of measureents described in Example 35 is carried out except that the agar nutrient media are infected by a Penicillium cyclopium Fungi strain and the test is evaluated on the 7th day after treatment.

Alternaria tenuis = settings: 5th day after treatment, untreated control 36.8
Procedure: as §1
The series of measurements according to Example 35 is carried out except that the agar nutrient media are infected by Alternaria Tenius and evaluation is accomplished on the 5th day after treatment.

SMILES | Diameter of colony (mm) (Sclerotinia sclerotinia; 1 ppm) | Diameter of colony (mm) (Sclerotinia sclerotinia; 10 ppm) | Diameter of colony (mm) (Sclerotinia sclerotinia; 100 ppm) | Diameter of colony (mm) (Sclerotinia sclerotinia; 1000 ppm) | Diameter of colony (mm) (Penicillium cyclopium; 1 ppm) | Diameter of colony (mm) (Penicillium cyclopium; 10 ppm) | Diameter of colony (mm) (Penicillium cyclopium; 100 ppm) | Diameter of colony (mm) (Penicillium cyclopium; 1000 ppm) | Diameter of colony (mm) (Alternaria tenuis; 1 ppm) | Diameter of colony (mm) (Alternaria tenuis; 10 ppm) | Diameter of colony (mm) (Alternaria tenuis; 100 ppm) | Diameter of colony (mm) (Alternaria tenuis; 1000 ppm)
CC(CCl)OP1(=S)OCCS1 (stereo not drawn) [Compound 10, 2-(0-1'-methyl-2'-chloroethyl)-2-thio-1,3,2-oxathiophospholane] | 40.1 mm | 31.3 mm | 1.8 mm | 0 mm | 21.3 mm | 19.0 mm | 6.8 mm | 0 mm | 33.9 mm | 21.6 mm | 5.8 mm | 0 mm
CC(CBr)OP1(=S)OCCS1 (stereo not drawn) [Compound 11] | 34.6 mm | 30.6 mm | 2.8 mm | 0 mm | 24.1 mm | 17.5 mm | 8.3 mm | 0 mm | 35.9 mm | 24.1 mm | 4.6 mm | 0 mm
CC(CI)OP1(=S)OCCS1 (stereo not drawn) [Compound 12] | 35.9 mm | 27.4 mm | 3.7 mm | 0 mm | 25.8 mm | 16.1 mm | 4.7 mm | 0 mm | 34.5 mm | 22.0 mm | 4.8 mm | 0 mm
CC(Cl)COP1(=S)OCCS1 (stereo not drawn) [Compound 13, 2-(0-2'-methyl-2'-chloroethyl)-2-thio-1,3,2-oxathiophospholane] | 33.9 mm | 32.1 mm | 1.7 mm | 0 mm | 24.5 mm | 19.2 mm | 7.5 mm | 0 mm | 32.2 mm | 25.8 mm | 5.1 mm | 0 mm
CC(Br)COP1(=S)OCCS1 (stereo not drawn) [Compound 14] | 38.1 mm | 28.1 mm | 0 mm | 0 mm | 18.2 mm | 17.6 mm | 7.9 mm | 0 mm | 31.3 mm | 21.3 mm | 5.7 mm | 0 mm
CC(I)COP1(=S)OCCS1 (stereo not drawn) [Compound 15] | 34.3 mm | 30.3 mm | 1.4 mm | 0 mm | 19.1 mm | 15.5 mm | 5.8 mm | 0 mm | 35.9 mm | 21.1 mm | 5.5 mm | 0 mm
CC1OP(=S)(OCCCl)SC1C (stereo not drawn) [Compound 16, 2-(0-2'-chloroethyl)-2-thio-4,5-dimethyl-1,3,2-oxathiophospholane] | 39.4 mm | 27.6 mm | 1.7 mm | 0 mm | 23.2 mm | 18.1 mm | 6.6 mm | 0 mm | 34.4 mm | 22.0 mm | 6.3 mm | 0 mm
CC1OP(=S)(OCCBr)SC1C (stereo not drawn) [Compound 17] | 40.1 mm | 30.2 mm | 1.0 mm | 0 mm | 24.9 mm | 14.2 mm | 8.9 mm | 0 mm | 33.2 mm | 23.9 mm | 5.6 mm | 0 mm
CC1OP(=S)(OCCI)SC1C (stereo not drawn) [Compound 18] | 38.2 mm | 28.0 mm | 1.5 mm | 0 mm | 25.2 mm | 14.2 mm | 6.3 mm | 0 mm | 35.8 mm | 22.8 mm | 5.3 mm | 0 mm
